Measurements from publication PMC2074590 (British Journal of Cancer, 1996).
Like-named read-outs stand apart in the source and are kept apart here.

Columns and labels:
[1] = Serum concentrations of ICI 182780 by radioimmunoassay (pharmacokinetics of monthly i.m. depot); assay type: in vivo, human; conditions: for Cmax: human, serum, intramuscular; for Cmax / AUC at month 6 / AUC on entry: 250 mg;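 for AUC on entry: AUC over the first monthly dosing interval after the first injection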
Experimental: Bridsh Journal of Cancer (1996) 74, 300-308 ? […] The agent was administered as a monthly depot intramuscular injection. […] The study was approved by the ethics committees of each clinical centre. Patients were eligible for the study if they were post- menopausal and age less than 81 years, with histologically verified breast cancer. […] Patients were excluded if they had serious intercurrent disease, a WHO performance status of greater than 2, and a life expectancy of less than 3 months or had received previous cytotoxic chemotherapy for advanced breast cancer. […] Patients 5-19 received 250 mg month-1 i.m. from the outset. […] Tumour response to therapy was evaluated according to UICC criteria (Hayward et al., 1977). To qualify for the 'no change' category, tumour growth had to stabilise for more than 6 months (Howell et al., 1988; Robertson et al., 1989). Body weight was recorded at each monthly review in the majority of patients. […] The procedure was applied after solid base clean up of a diethyl ether/hexane extract of serum. The study limit of quantification was 0.68 ng ml-'. […] Gonadotrophins follicle-stimulating hormone and lutenising hormone (FSH and LH) and SHBG were measured by RIA in the Regional Radioimmunoassay Laboratory of the University Hospital of South Manchester. Prolactin was measured by immunoradiometric assay using reagents supplied by Netria. Total cholesterol levels were determined enzymatically using a commercially available reagent (Diamed, Switzerland). Triglyceride levels were determined by the glyceryl phosphate oxidase-peroxidase-antiperox- idase method using a commercially available kit (Boehringer Mannheim, Germany). High-density lipoprotein (HDL) cholesterol levels were measured after pretreatment of the serum samples with buffered magnesium phosphotungstate, which selectively precipitates low-density lipoprotein (LDL) cholesterol, very low-density lipoprotein (VLDL) cholesterol and chylomicrons, leaving HDL cholesterol in the super- natant. Serum levels of LDL cholesterol were calculated using the Friedewald equation (Friedewald et al., 1972). Endometrial assessment Endometrial thickness was measured in transverse section by transabdominal ultrasound using a Siemens Sonoline SL2 with a 3.5 MHz sector probe. Baseline and repeat scans at 3-6 monthly intervals were performed in five patients. […] Pharmacokinectic data were analysed using para- metric statistics. Data relating to body weight, serum gonadotrophin, SHBG and lipid levels were analysed using non-parametric statistics. The null hypothesis was rejected at a probability level of P<0.05. […] However, samples were not available between day 2 and day 8.

ER = system: ER; parameters: method as in Wakeling et al., 1991; conditions: ref Wakeling et al., 1991; cited from earlier work
[2] = system: endometrial proliferation; parameters: method as in Thomas et al., 1993; conditions: short-term studies in women, at serum concentrations similar to the present study; ref Thomas et al., 1993; cited from earlier work
[3] = patient 13 (progressive disease)

For `C[C@]12CC[C@@H]3c4ccc(O)cc4C[C@@H](CCCCCCCCC[S+]([O-])CCCC(F)(F)C(F)(F)F)[C@H]3[C@@H]1CC[C@@H]2O` (stereo partly shown) [ICI 182780, 7a-[9(4,4,5,5,pentafluoropentyl-sulphinyl)nonyl]oestra-1 ,3,5,(10)-triene-3,17,B-diol], the Cmax ([1]; patient 15 (no change), read-out: Cmax at month 6) was 15.8 ng/mL, the Cmax ([1]; patient 15 (no change), read-out: Cmax on entry) was 9 ng/mL and the Cmax ([1]; patient 16 (partial response), read-out: Cmax at month 6) was 12 ng/mL. It also gave a Cmax ([1]; patient 16 (partial response), read-out: Cmax on entry) of 4.4 ng/mL, a Cmax ([1]; patient 17 (no change), read-out: Cmax at month 6) of 14.9 ng/mL and a Cmax ([1]; patient 17 (no change), read-out: Cmax on entry) of 9.5 ng/mL. It also gave a Cmax ([1]; patient 18 (no change), read-out: Cmax at month 6) of 10.2 ng/mL, a Cmax ([1]; patient 18 (no change), read-out: Cmax on entry) of 10.3 ng/mL and a Cmax ([1]; patient 19 (no change), read-out: Cmax at month 6) of 17.2 ng/mL. The Cmax ([1]; patient 19 (no change), read-out: Cmax on entry) was 11 ng/mL, the “Difference in median Cmax and AUC between responders and non-responders” value ([1]; in vivo) was “no significant difference” and the “Increase in AUC on multiple dosing” value ([1]; month 6 vs month 1, 250 mg) was 1.5 fold. For the same compound, the “Increase in Cmax on multiple dosing” value ([1]; month 6 vs month 1, 250 mg) was 1.2 fold, the “Serum level at day 28 relative to threshold” value ([1]; monthly depot i.m., day 28) was “above the projected therapeutic threshold” and the “Median AUC at month 6” value ([1]; no change patients) was 190.9 ng·days/mL. The “Median AUC on entry” value ([1]; no change patients) was 131.6 ng·days/mL, the “Median AUC at month 6” value ([1]; partial response patients) was 191.0 ng·days/mL and the “Median AUC on entry” value ([1]; partial response patients) was 118.7 ng·days/mL. The “AUC at month 6” value ([1]; patient 2 (no change)) was 135.8 ng·days/mL, the “AUC at month 6” value ([1]; patient 3 (partial response)) was 139.5 ng·days/mL and the “AUC at month 6” value ([1]; patient 5 (partial response)) was 203.0 ng·days/mL. It also gave an AUC on entry ([1]; patient 5 (partial response)) of 188.4 ng·days/mL, an AUC on entry ([1]; patient 6 (partial response)) of 118.3 ng·days/mL and an AUC on entry ([1]; patient 7 (progressive disease)) of 105.7 ng·days/mL. The “AUC at month 6” value ([1]; patient 8 (partial response)) was 175.2 ng·days/mL, the AUC on entry ([1]; patient 8 (partial response)) was 118.7 ng·days/mL and the AUC on entry ([1]; patient 9 (progressive disease)) was 138.2 ng·days/mL. The “AUC at month 6” value ([1]; patient 10 (partial response)) was 191.7 ng·days/mL, the AUC on entry ([1]; patient 10 (partial response)) was 206.6 ng·days/mL and the AUC on entry ([1]; patient 11 (progressive disease)) was 289.3 ng·days/mL. The “AUC at month 6” value ([1]; patient 12 (no change)) was 179.3 ng·days/mL, the AUC on entry ([1]; patient 12 (no change)) was 143.6 ng·days/mL and the “AUC at month 6” value [1, 3] was 243.7 ng·days/mL. The AUC on entry [1, 3] was 36.7 ng·days/mL, the “AUC at month 6” value ([1]; patient 14 (partial response)) was 266.0 ng·days/mL and the AUC on entry ([1]; patient 14 (partial response)) was 134.6 ng·days/mL. The “AUC at month 6” value ([1]; patient 15 (no change)) was 201.7 ng·days/mL, the AUC on entry ([1]; patient 15 (no change)) was 107.8 ng·days/mL and the “AUC at month 6” value ([1]; patient 16 (partial response)) was 190.8 ng·days/mL. The AUC on entry ([1]; patient 16 (partial response)) was 72.8 ng·days/mL, the “AUC at month 6” value ([1]; patient 17 (no change)) was 297.6 ng·days/mL and the AUC on entry ([1]; patient 17 (no change)) was 125.5 ng·days/mL. For the same compound, the “AUC at month 6” value ([1]; patient 18 (no change)) was 156.1 ng·days/mL, the AUC on entry ([1]; patient 18 (no change)) was 183.2 ng·days/mL and the “AUC at month 6” value ([1]; patient 19 (no change)) was 308.0 ng·days/mL. For the same compound, the AUC on entry ([1]; patient 19 (no change)) was 137.8 ng·days/mL, the “Median AUC on entry” value ([1]; progressive disease patients) was 79.4 ng·days/mL and the “Potency and affinity for the ER relative to ICI 164384” value (ER) was “greater potency and affinity for the ER”. The “Effect on endometrial proliferation” value [2] was “inhibited endometrial proliferation”.
